≈ marks a conversion by molar mass, not a printed value. Like-named read-outs stand apart in the source and are kept apart here. Some results are limits rather than exact numbers.

Series [1] has as its target wt Cdr1 ATPase activity (Candida albicans, UniProt Q5ANA3). The series is described as follows: biochemical. The note with it: for Vmax of ATPase activity in the presence of inhibitor: CDR1; for type of inhibition of ATPase activity (Lineweaver-Burk): wt Cdr1.
Series [2] addresses Cdr1-A713P (FLC transport) (Candida albicans, UniProt Q5ANA3, A713P). The series is described as follows: Agarose diffusion FLC chemosensitization assay. The note with it: 0.25× MICFLC, disc. The class given is cell-based. The method, then:
(§1) Compounds were tested for inhibition of FLC transport by yeast strains overexpressing Cdr1 or Cdr1 mutations.

The target in series [3] is Cdr1-G521R (FLC transport) (Candida albicans, UniProt Q5ANA3, G521R). Put plainly: Agarose diffusion FLC chemosensitization assay. The series is classed as cell-based. The note with it: 0.25× MICFLC, disc. On the procedure: as §1
Series [4] concerns the target Cdr1-M639I (FLC transport) (Candida albicans, UniProt Q5ANA3, M639I). The series is described as follows: Agarose diffusion FLC chemosensitization assay. The series is classed as cell-based. The note with it: 0.25× MICFLC, disc. On the procedure: as §1
Series [5] addresses Cdr1-T1355N (FLC transport) (Candida albicans, UniProt Q5ANA3, T1355N). The series is described as follows: Agarose diffusion FLC chemosensitization assay. The class given is cell-based. The note with it: 0.25× MICFLC, disc. On the procedure: as §1
The test system of series [6] is AD/pABC3 (empty vector control, sensitive strain). The note with it: cited from earlier work.
Series [7] deals with wt Cdr1 (FLC efflux of AD/CDR1 cells) (Candida albicans, UniProt Q5ANA3). The note with it: for lowest MICFLC in the presence of inhibitor: FLC 5 to 640 mg/L tested.
For series [8], the system named is all strains, including AD/pABC3. The series is described as follows: Liquid MIC of efflux pump inhibitors alone.
Series [9] deals with AD/pABC3 (empty vector control, sensitive strain).
Series [10] has the same test system. The series is described as follows: microbe, parasite or virus in culture. The note with it: Saccharomyces cerevisiae, read-out: MIC (drug susceptibility).
The test system of series [11] is AD/CDR1 (AD1-8u- overexpressing wt Cdr1). Put plainly: MIC, modified CLSI M27-A3 broth microdilution. The note with it: Saccharomyces cerevisiae, read-out: MIC (drug susceptibility). For orientation: Dilution methods test growth across graded concentrations, often in twofold steps.
The test system of series [12] is AD/CDR1-G521R. Put plainly: MIC, modified CLSI M27-A3 broth microdilution.
Series [13] has as its system AD/CDR1-M639I. Put plainly: MIC, modified CLSI M27-A3 broth microdilution.
The subject of series [14] is AD/CDR1-A713P. The series is described as follows: MIC, modified CLSI M27-A3 broth microdilution.
The subject of series [15] is AD/CDR1-T1355N. Put plainly: MIC, modified CLSI M27-A3 broth microdilution.
Series [16] has as its target wt Cdr1 (FLC transport of AD/CDR1 cells) (Candida albicans, UniProt Q5ANA3). The series is described as follows: Agarose diffusion FLC chemosensitization assay. The class given is cell-based. The note with it: inhibitor-only control. The method, then:
as §1

Setting [17] is: CDR1 (wt), from Fig. 4, read-out: IC50 for inhibition of Cdr1 ATPase activity.
Where [18] appears, read: Saccharomyces cerevisiae, read-out: MIC (drug susceptibility).

Cdr1-A713P (FLC transport), sequence (Q5ANA3 whole entry A713P, the tested form may be a part): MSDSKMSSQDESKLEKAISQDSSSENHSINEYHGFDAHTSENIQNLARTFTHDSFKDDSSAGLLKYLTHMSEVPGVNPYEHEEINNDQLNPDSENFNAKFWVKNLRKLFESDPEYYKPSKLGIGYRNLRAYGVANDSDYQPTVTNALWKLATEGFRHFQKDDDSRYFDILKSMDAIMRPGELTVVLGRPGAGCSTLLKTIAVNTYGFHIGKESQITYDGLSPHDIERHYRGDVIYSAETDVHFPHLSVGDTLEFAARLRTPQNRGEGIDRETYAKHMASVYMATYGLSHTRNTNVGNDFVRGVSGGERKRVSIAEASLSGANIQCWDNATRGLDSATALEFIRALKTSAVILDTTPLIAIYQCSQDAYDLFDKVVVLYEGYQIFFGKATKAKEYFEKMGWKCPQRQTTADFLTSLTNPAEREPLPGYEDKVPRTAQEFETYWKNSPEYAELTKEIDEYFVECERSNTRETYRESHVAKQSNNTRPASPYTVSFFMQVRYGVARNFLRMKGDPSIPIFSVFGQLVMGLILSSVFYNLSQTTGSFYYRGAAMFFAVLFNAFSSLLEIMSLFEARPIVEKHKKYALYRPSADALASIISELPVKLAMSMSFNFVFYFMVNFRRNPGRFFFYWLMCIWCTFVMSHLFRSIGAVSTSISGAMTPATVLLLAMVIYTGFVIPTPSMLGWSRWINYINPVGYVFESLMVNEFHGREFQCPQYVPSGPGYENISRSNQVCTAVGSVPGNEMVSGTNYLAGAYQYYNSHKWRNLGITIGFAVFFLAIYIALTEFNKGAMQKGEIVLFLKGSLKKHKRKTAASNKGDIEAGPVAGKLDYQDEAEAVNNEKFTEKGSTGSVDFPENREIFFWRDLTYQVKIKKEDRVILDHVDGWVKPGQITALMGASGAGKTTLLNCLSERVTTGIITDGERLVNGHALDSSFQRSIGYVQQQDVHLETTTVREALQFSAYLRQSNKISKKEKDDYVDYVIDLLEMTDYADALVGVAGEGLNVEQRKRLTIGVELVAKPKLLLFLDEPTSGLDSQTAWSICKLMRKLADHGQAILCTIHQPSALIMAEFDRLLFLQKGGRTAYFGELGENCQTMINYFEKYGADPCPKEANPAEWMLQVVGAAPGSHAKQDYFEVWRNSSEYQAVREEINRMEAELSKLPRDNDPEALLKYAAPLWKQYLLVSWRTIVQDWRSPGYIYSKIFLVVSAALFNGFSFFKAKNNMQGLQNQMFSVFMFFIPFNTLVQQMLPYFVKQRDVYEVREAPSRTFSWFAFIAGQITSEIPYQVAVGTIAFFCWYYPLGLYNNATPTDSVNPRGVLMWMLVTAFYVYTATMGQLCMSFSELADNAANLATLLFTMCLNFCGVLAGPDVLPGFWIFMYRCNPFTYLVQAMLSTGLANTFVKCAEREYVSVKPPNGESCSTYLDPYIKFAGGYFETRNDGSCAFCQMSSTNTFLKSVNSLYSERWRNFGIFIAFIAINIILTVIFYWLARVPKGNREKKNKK
wt Cdr1 ATPase activity, sequence (Q5ANA3 whole entry, the tested form may be a part): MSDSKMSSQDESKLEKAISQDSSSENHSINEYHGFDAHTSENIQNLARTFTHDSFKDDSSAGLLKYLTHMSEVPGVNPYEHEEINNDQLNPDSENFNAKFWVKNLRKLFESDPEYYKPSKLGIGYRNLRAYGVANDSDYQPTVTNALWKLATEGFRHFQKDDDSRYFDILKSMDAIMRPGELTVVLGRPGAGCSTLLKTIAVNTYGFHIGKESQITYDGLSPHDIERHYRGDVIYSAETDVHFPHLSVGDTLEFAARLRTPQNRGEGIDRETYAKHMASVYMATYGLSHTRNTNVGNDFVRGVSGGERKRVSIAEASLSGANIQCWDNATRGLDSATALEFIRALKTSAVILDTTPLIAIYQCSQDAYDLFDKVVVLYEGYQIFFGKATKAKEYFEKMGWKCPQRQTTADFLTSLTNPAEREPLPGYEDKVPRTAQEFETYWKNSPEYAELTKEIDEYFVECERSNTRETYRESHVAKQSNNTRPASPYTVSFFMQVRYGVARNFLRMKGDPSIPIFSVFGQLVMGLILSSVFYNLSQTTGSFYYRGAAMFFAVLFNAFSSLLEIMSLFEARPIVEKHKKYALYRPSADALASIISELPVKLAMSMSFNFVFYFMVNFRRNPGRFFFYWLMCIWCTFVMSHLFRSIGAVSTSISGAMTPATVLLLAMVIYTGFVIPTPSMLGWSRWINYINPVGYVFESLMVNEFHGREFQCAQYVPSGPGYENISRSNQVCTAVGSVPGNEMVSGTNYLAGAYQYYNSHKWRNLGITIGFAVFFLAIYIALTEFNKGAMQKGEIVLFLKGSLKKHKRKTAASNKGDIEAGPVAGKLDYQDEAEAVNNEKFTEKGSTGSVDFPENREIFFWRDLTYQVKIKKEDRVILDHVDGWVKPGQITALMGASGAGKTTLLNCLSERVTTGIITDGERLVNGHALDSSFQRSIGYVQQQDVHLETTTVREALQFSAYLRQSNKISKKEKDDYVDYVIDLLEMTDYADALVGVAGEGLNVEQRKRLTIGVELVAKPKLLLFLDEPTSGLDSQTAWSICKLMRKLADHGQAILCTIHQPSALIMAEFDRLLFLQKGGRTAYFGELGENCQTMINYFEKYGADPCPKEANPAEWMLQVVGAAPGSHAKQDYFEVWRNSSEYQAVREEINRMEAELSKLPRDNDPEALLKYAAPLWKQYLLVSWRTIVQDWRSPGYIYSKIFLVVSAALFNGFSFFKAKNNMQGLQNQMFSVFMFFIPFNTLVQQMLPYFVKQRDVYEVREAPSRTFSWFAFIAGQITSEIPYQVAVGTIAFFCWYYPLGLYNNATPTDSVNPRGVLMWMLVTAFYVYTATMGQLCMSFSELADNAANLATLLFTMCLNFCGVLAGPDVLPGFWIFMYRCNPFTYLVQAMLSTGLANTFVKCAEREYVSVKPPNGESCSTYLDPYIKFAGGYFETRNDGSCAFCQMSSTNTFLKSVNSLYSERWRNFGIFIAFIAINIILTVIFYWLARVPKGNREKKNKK
wt Cdr1 (FLC efflux of AD/CDR1 cells), sequence (Q5ANA3 whole entry): as the sequence (Q5ANA3 whole entry, the tested form may be a part) above

Broadly, the IC50 is the concentration at which inhibition is half-maximal. Usually Ki stands for a measure of affinity in units of concentration, obtained from inhibition or displacement. Take `CC(C)[C@H]1C(=O)O[C@H](C(C)C)C(=O)N(C)[C@@H](C(C)C)C(=O)O[C@H](C(C)C)C(=O)N(C)[C@@H](C(C)C)C(=O)O[C@H](C(C)C)C(=O)N1C` [Enniatin B, enniatin B]: the IC50 amounted to 180 nM in series [1] and 160 nM in series [7]. Besides, affinity in series [1] was put at a Ki of 200 ± 30 nM. In addition, the “Vmax of ATPase activity in the presence of inhibitor” value (“Vmax … of inhibitor” below) in series [1] ([I] 0.1 μM) was 182 nmol/min/mg; in series [1] ([I] 0.5 μM) it was 98 nmol/min/mg. In addition, the “type of inhibition of ATPase activity (Lineweaver-Burk)” value (“type of inhibition of ATPase activity” for short) in [1] is “noncompetitive inhibition”. The “susceptibility of FLC transport to inhibitor on agar” value is “remained susceptible” in series [2], “resistant” in series [3], “substantial resistance” in series [4] and “substantial resistance” in [5]. The “synergy with the Cdr1 substrates FLC and R6G” value (from here on “synergy”) in [6] was “no synergy”. In addition, in series [7], the “FICI (inhibitor/FLC combination)” value is less than 0.13. For the same compound, the “lowest inhibitor concentration necessary to achieve the lowest MICFLC” value (from here on “lowest inhibitor concentration necessary”) in series [7] (CDR1) is 1.25 µM. In series [7] (CDR1), the “lowest MICFLC in the presence of inhibitor” value (“lowest MICFLC … of inhibitor” for short) was 5 mg/L. Besides, the MIC in series [8] (Saccharomyces cerevisiae, read-out: MIC of inhibitor alone) is 10 µM.

With `C=CC[C@@H]1/C=C(\C)C[C@H](C)C[C@H](OC)[C@H]2O[C@@](O)(C(=O)C(=O)N3CCCC[C@H]3C(=O)O[C@H](/C(C)=C/[C@@H]3CC[C@@H](O)[C@H](OC)C3)[C@H](C)[C@@H](O)CC1=O)[C@H](C)C[C@@H]2OC` [FK506], the Ki in series [1] (CDR1 (wt), Dixon plot, read-out: Ki (Cdr1 ATPase activity)) was 1210 ± 240 nM. Besides, the figures for the IC50 in [1] (setting [17]) and in series [7] were 1250 nM and 2500 nM, respectively. Besides, the “Vmax … of inhibitor” value in [1] ([I] 0.5 μM) stood at 233 nmol/min/mg; in [1] ([I] 1.0 μM), 164 nmol/min/mg. Moreover, the “type of inhibition of ATPase activity” value in series [1] is reported as “noncompetitive inhibition”. Also, the “susceptibility of FLC transport to inhibitor on agar” value in series [2] was “resistant”; in series [3] it was “resistant”; in series [4] it was “remained susceptible”; in series [5], “remained susceptible”. Moreover, in series [6], the “synergy” value is “no synergy”. In addition, in series [7], the “FICI (inhibitor/FLC combination)” value is listed as less than 0.26. In addition, the “lowest inhibitor concentration necessary” value in [7] (CDR1) was determined as 40 µM. Besides, in series [7] (CDR1), the “lowest MICFLC … of inhibitor” value is 5 mg/L.

On to `OC(Cn1cncn1)(Cn1cncn1)c1ccc(F)cc1F` [FLC, fluconazole], for which, in series [1], the “effect of substrate on ATPase activity” value is “no effect”. Also, the “MIC (drug susceptibility)” value in [9] is 1 µg/mL (≈ 3.27 µM). The MIC is 1.25 µg/mL (≈ 4.08 µM) in [10]; 640 µg/mL (≈ 2090 µM) in series [11]; 160 µg/mL (≈ 522 µM) in series [12] (setting [18]); 640 µg/mL (≈ 2090 µM) in series [13] (setting [18]); 320 µg/mL (≈ 1040 µM) in series [14] (setting [18]); 320 µg/mL (≈ 1040 µM) in series [15] (setting [18]). The MICFLC in series [7] was found to be 640 mg/L. The “Fold-reduced resistance level (MIC) relative to AD/CDR1” value in [12] (G521R, 1 = no change) is listed as 4 fold; in series [13] (M639I, 1 = no change), 1 fold; in series [14] (A713P, 1 = no change) it was 2 fold; in [15] (T1355N, 1 = no change) it was 2 fold.

beauvericin: the “Vmax … of inhibitor” value in series [1] ([I] 0.2 μM) came out at 132 nmol/min/mg; in series [1] ([I] 0.5 μM) it was 63 nmol/min/mg. For the same compound, in series [1], the “type of inhibition of ATPase activity” value is recorded as “noncompetitive inhibition”. The “susceptibility of FLC transport to inhibitor on agar” value is on record as “remained susceptible” in series [2], “resistant” in [3] and “slightly more resistant” in [5]. Besides, the “synergy” value in [6] was “no synergy”. For the same compound, in [7], the “FICI (inhibitor/FLC combination)” value was less than 0.13. Besides, the “lowest inhibitor concentration necessary” value in series [7] (CDR1) is 1.25 µM. In addition, in series [7] (CDR1), the “lowest MICFLC … of inhibitor” value turned out to be 5 mg/L.

Take milbemycin α25: the IC50 stood at 2800 nM in [1] (setting [17]) and 80 nM in [7] (read-out: IC50 for inhibition of FLC efflux (MICFLC), CDR1, live whole cells, from Fig. 3B). In addition, the “susceptibility of FLC transport to inhibitor on agar” value in [2] was “resistant”; in series [3] it was “more resistant”; in series [4] it was “most resistance”; in series [5], “most resistance”. Also, the “toxicity of inhibitor alone on agar without FLC” value in series [16] was “slight growth inhibitory zone”. Further, the “FICI (inhibitor/FLC combination)” value in series [7] is less than 0.02; in series [7] (listed as milbemycin α25) it was 0.02. The “lowest inhibitor concentration necessary” value in series [7] (CDR1) turned out to be 0.63 µM. Besides, in series [7] (CDR1), the “lowest MICFLC … of inhibitor” value came out at 5 mg/L. In [8] (all strains, including AD/pABC3), the “MIC of inhibitor alone” value was more than 20 µM.
